Assay results reported in paper doi:10.1101/2022.12.25.521902v1 (biorxiv, 2022).

Test system: MsC17OMT (MsOMT1)
Test: LC-MS/MS methyltransferase assay, Michaelis-Menten fit
Assay type: biochemical, Mitragyna speciosa
Details: 100 μM SAM, Tris-HCl pH 7.5, 30 °C, 2 min

| SMILES | Km [µM] |
| --- | --- |
| C/C=C1\CN2CCc3c([nH]c4ccccc34)[C@@H]2C[C@@H]1/C(=C/O)C(=O)OC [compound 4, 19Z-geissoschizine] | 12.8 |
| C/C=C1/CN2CCc3c([nH]c4ccccc34)[C@@H]2C[C@@H]1/C(=C/O)C(=O)OC [compound 3, 19E-geissoschizine] | 5.3 |
